System: Wistar male rats given galactosamine hydrochloride
Experiment: Test on liver dysfunction suppression effect (galactosamine hydrochloride-induced liver disorder, plasma AST/ALT)
Type: in vivo, rat
Conditions: oral 7 days, 6 g/kg of 6 mg/mL solution, galactosamine hydrochloride 750 mg/kg i.p. on day 7, blood on day 9, vs control administration group (p<0.05, Dunnett)
Method: (Preparation of Administration Products for Animal Test)
(1) Preparation of Compound I Administration Product
An 8 N sodium hydroxide aqueous solution was added dropwise to 100 mL of roughly purified solution I in small amounts, while checking the pH with a pH meter, to adjust the acid-base property of the solution to pH 6.5. Further, the mixture was diluted with a solvent.
(2) Preparation of Compound V Administration Product
An 8 N sodium hydroxide aqueous solution was added dropwise to 100 mL of roughly purified solution I in small amounts, while checking the pH with a pH meter, to adjust the acid-base property of the solution to pH 8.6, followed by heating at 121° C. for 30 minutes, and further the mixture was diluted with a solvent (the pH of the solution after the heating changed to about pH 6.2 due to acid formation by hydrolysis reaction).
(Test on Liver Dysfunction Suppression Effect)
The aforementioned administration products (1) and (2) were dissolved in a solvent composed of oligosaccharide, cyclic oligosaccharide, and D-sorbitol to give a solution, and the final concentration of compounds I and V dissolved in the solution administered was adjusted to 6 mg/mL. The solution in an amount of 6 g/kg as calculated from specific gravity of the solution was orally administered to 8 week-old Wistar male rats (CHARLES RIVER LABORATORIES JAPAN, INC.) for 7 days with free access to commercially available solid feed and tap water. The solvent free from the aforementioned compounds (1) and (2) in an amount of 6 g/kg was orally administered to the control animals for 7 days. On the 7th day after the start of administration, a 750 mg/kg dose of galactosamine hydrochloride (Wako Pure Chemical Industries, Ltd.) was intraperitoneally administered to each of the animals to which the control and compounds I and V were administered, and the abdomen was opened on the 9th day after the start of administration under pentobarbital anesthesia (50 mg/kg), to collect heparinized blood from the abdominal aorta. The obtained blood was separated into blood plasma, and the AST and ALT values thereof were measured by the JSCC standardization-corresponding method. In FIG. 14, the results are shown as average+standard deviation (the number of animals of each group was 20). Symbol * represents a significant difference (p<0.05) from the control group, which was tested by the Dunnett's test after the one-way analysis of variance.

| SMILES | ALT value in blood plasma | AST value in blood plasma |
| --- | --- | --- |
| O=C(O)CC(C(=O)O)N1C(=O)CC(O)(CC(=O)O)C1=O (stereo not shown) [compound I] | significantly low | significantly low |
| O=C(O)CC(NC(=O)CC(O)(CC(=O)O)C(=O)O)C(=O)O (stereo not shown) [compound V] | significantly low | significantly low |

Source: US11001573B2, “Citric acid derivative” (ADABIO CO., LTD., priority 2015, dated 2021)
